Measured values taken from the supplement of paper PMC10307832.

Experiments:
Assay in all cases: relative viability (nuclei count vs DMSO), 5 days (fraction); higher = more cells survive
[1] = compound: CC1CC(=O)N(C2=CN=C(N=C2N1C3CCCC3)NC4=C(C=C(C=C4)C(=O)NC5CCN(CC5)C)OC)C [NPK76-II-72-1] + Cc1nc(NC(=O)N2CCC[C@H]2C(N)=O)sc1-c1ccnc(C(C)(C)C(F)(F)F)c1 [Alpelisib] (partner 2 µM)
How it was run: (§1)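 Five library-drug doses in √10 steps were combined with a fixed anchor-drug dose, or a single drug was given alone, by pin tool to lung cancer cell lines in 1536-well plates the day after seeding. Nuclei were stained and counted after 5 days. Relative viability is the nuclei count in treated wells over that in vehicle wells, taken as the median of duplicate plates.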

[2] = compound: CC[C@@H]1C(=O)N(C)c2cnc(Nc3ccc(C(=O)NC4CCN(C)CC4)cc3OC)nc2N1C1CCCC1 [BI-2536] + C[C@]1(O)C[C@@H](c2nc(-c3ccc4ccc(-c5ccccc5)nc4c3)c3c(N)nccn32)C1 [Linsitinib] (partner 1 µM)
How it was run: as §1

[3] = compound: CC[C@@H]1C(=O)N(C)c2cnc(Nc3ccc(C(=O)NC4CCN(C)CC4)cc3OC)nc2N1C1CCCC1 [BI-2536] + CC(C)C[C@H](NC(=O)[C@H](Cc1ccccc1)NC(=O)c1cnccn1)B(O)O [Bortezomib] (partner 0.002 µM)
How it was run: as §1

[4] = compound: CC1CC(=O)N(C2=CN=C(N=C2N1C3CCCC3)NC4=C(C=C(C=C4)C(=O)NC5CCN(CC5)C)OC)C [NPK76-II-72-1] + O=C(c1cc(Cc2n[nH]c(=O)c3ccccc23)ccc1F)N1CCN(C(=O)C2CC2)CC1 [Olaparib] (partner 8 µM)
How it was run: as §1

Cell Line	relative viability ([1]; first compound 0.01 µM)	relative viability ([1]; first compound 0.03162 µM)	relative viability ([1]; first compound 0.1 µM)	relative viability ([1]; first compound 0.3162 µM)	relative viability ([1]; first compound 1 µM)	relative viability ([2]; first compound 0.01 µM)	relative viability ([2]; first compound 0.03162 µM)	relative viability ([2]; first compound 0.1 µM)	relative viability ([2]; first compound 0.3162 µM)	relative viability ([2]; first compound 1 µM)	relative viability ([3]; first compound 0.01 µM)	relative viability ([3]; first compound 0.03162 µM)	relative viability ([3]; first compound 0.1 µM)	relative viability ([3]; first compound 0.3162 µM)	relative viability ([3]; first compound 1 µM)	relative viability ([4]; first compound 0.01 µM)	relative viability ([4]; first compound 0.03162 µM)	relative viability ([4]; first compound 0.1 µM)	relative viability ([4]; first compound 0.3162 µM)	relative viability ([4]; first compound 1 µM)
NCI-H1915	1.07	1.06	1.05	1.01	1.1	1.12	1.05	1.03	0.625	0.143	1.02	0.965	0.613	0.439	0.0752	0.271	0.254	0.262	0.253	0.246
NCI-H596	0.523	0.448	0.405	0.479	0.498	1.09	1.1	1.11	0.363	0.39	1.09	1.18	0.759	0.733	0.328	0.771	0.748	0.68	0.704	0.67
NCI-H322M	0.781	0.73	0.766	0.922	0.818	0.921	0.835	1.04	0.668	0.339	1.32	1.22	1.34	1.34	0.311	0.582	0.828	0.623	0.878	0.791
NCI-H1299	1.09	1.07	1.03	1.05	1.06	1	0.971	0.974	0.245	0.363	0.985	1.05	0.981	0.419	0.351	0.946	1.01	0.953	0.95	0.947
NCI-H2228	0.595	0.81	0.555	0.733	0.807	0.692	1.06	0.63	0.116	0.155	1.13	0.911	0.16	0.198	0.187	0.561	0.666	0.841	0.597	0.817
IA-LM	0.895	0.851	0.657	0.612	0.705	0.641	0.55	0.774	0.104	0.164	0.772	0.623	0.0686	0.0705	0.0718	0.811	0.825	0.766	0.788	0.847
NCI-H647	0.985	1.28		1.02	1.18	1.15	1.15	1.11	0.108	0.0822	0.799	0.888	0.457	0.0877	0.087	0.633	0.48	0.755	0.46	0.661
NCI-H2085	0.889	0.946	0.932	0.899	1	0.958	0.919	0.831	0.267	0.329	1.05	1.01	0.587	0.371	0.381	0.718	0.77	0.783	0.726	0.83
SW 1573	0.7	0.891	0.7	0.764	0.819	0.696	0.683	0.82	0.161	0.132	1.12	1.15	0.967	0.14	0.152	0.437	0.625	0.495	0.488	0.473
NCI-H727	0.476	0.516	0.626	0.543	0.713	0.416	0.268	0.281	0.282	0.211	0.807	0.833	0.656	0.267	0.239	0.957	0.774	0.655	0.699	0.679
NCI-H441	0.536	0.648	0.866	0.767	0.901	0.521	0.575	0.321	0.126	0.133	0.333	0.719	0.209	0.152	0.177	0.476	0.598	0.648	0.589	0.573
LOU-NH91	0.682	0.72	0.719	0.563	0.814	0.968	0.925	1.04	0.691	0.289	0.506	0.496	0.458	0.287	0.334	0.906	0.926	0.893	0.785	0.991
NCI-H3122	0.709	0.724	0.789	0.838	0.776	1.03	1.06	1.01	0.184	0.224	0.982	1.01	0.43	0.231	0.242	0.6	0.6	0.722	0.653	0.589
NCI-H460	0.469	0.541	0.478	0.442	0.497	0.844	0.755	0.28	0.0093	0.0128	1.21	0.65	0.265	0.0115	0.0118	0.441	0.457	0.514	0.426	0.455
NCI-H650	1.15	1.23	0.952		1.13	0.964	0.881	0.534	0.165	0.17	0.73	0.563	0.233	0.19	0.126	0.391	0.316	0.397	0.354	0.489
NCI-H661	0.609	0.665	0.886	0.451	0.797	0.458	0.567	0.709	0.232	0.2	0.959	0.868	0.727	0.191	0.257	0.697	0.705	0.778	0.666	0.83
